Laboratory results published in patent publication US10442804B2, “Compounds for the treatment of hepatitis B virus infection” (Gilead Sciences, Inc., priority 2017, dated 2019).
Read-outs that look alike come from different tables or passages of the source.

How the values were obtained:
[1] = system: HBV-infected NTCP-HepG2 cells, secreted HBsAg; experiment: microbe, parasite or virus in culture; type: cell-based, hepatitis B virus (genotype D, AD38-derived); conditions: Hepatitis B virus, 120 h, secreted HBsAg in supernatant after 5 days; geometric mean of minimum four determinations; read-out: NTCP HBsAg EC50
Protocol: NTCP-HepG2 Antiviral Assay for Secreted HBsAg
HepG2 cells stably expressing sodium-taurocholate cotransporting polypeptide (NTCP-HepG2) were grown in Dulbecco's Modified Eagle Medium (DMEM) without sodium pyruvate (Thermo Fisher Scientific, Waltham, Mass.) supplemented with 10% fetal bovine serum, 2 mM L-glutamine, 1% penicillin/streptomycin, and 0.25 mg/mL G-418. NTCP-HepG2 cells were infected with 4000 genome equivalent per cell of genotype D (AD38-derived) HBV in DMEM without sodium pyruvate (Thermo Fisher Scientific, Waltham, Mass.) supplemented with 2% fetal bovine serum, 2 mM L-glutamine, 1% penicillin/streptomycin, 2.5% DMSO, and 4% PEG 8000 (Promega, Madison, Wis.). After 24-hour incubation, cells were washed three times with OptiMEM (Thermo Fisher Scientific, Waltham, Mass.) and fed with fresh DMEM without sodium pyruvate (Thermo Fisher Scientific, Waltham, Mass.) supplemented with 2% fetal bovine serum, 2 mM L-glutamine, 1% penicillin/streptomycin, and 2.5% DMSO. At 4 days after infection, infected NTCP-HepG2 cells were seeded on 384-well plates pre-coated with collagen at a density of 20000 cells per well containing serially diluted compounds of the present disclosure or DMSO (0.5%) in a final volume of 80 μl of DMEM without sodium pyruvate (Thermo Fisher Scientific, Waltham, Mass.) supplemented with 2% fetal bovine serum, 2 mM L-glutamine, 1% penicillin/streptomycin, and 1% DMSO. After an incubation time of 5 days, cell culture supernatant was collected and measured for HBsAg.
Secreted HBsAg in the supernatant were measured using a multiplex chemiluminescent MSD assay (Meso Scale Discovery, Rockville, Md.) using capture and detection antibody pairs specific for HBsAg. The EC50 values were calculated from the fit of the dose-response curves to a four-parameter equation. All EC50 values represent geometric mean values of a minimum of four determinations.

MT-4 cytotoxicity assay = type: cell-based, human; conditions: human
Protocol: Biological Example 2: MT-4 Cytotoxicity Assay
The MT-4 cell line (HTLV-1 transformed, human T lymphoblastoid cells) was obtained from the NIH AIDS Reagent program (Bethesda, Md.). MT-4 cells were maintained in RPMI-1640 media (Thermo Fisher Scientific, Waltham, Mass.) supplemented with 10% fetal bovine serum, 100 Units/mL penicillin, and 100 μg/mL streptomycin. For the MT-4 cytotoxicity assay, 0.4 μL of serially diluted solutions of certain compounds disclosed herein were added to 40 μL of cell maintenance media in 384-well black, solid bottom plate using a Biomek FX workstation (Beckman Coulter, Brea, Calif.). Two thousand cells in 35 μL were added to each well using a Biotek uFlow Workstation (Biotek, Winooski, Vt.). Each assay plate contained 10 μM puromycin (final concentration) and 0.5% DMSO in RPMI-1640 media as positive and negative controls, respectively. Assay plates were incubated for five days at 37° C. in an incubator set at 5% CO2 and 90% humidity. After five days, 22 μL of Cell Titer Glo reagent (Promega, Madison, Wis.) was added to the assay plates with a Biotek uFlow Workstation. Plates were subsequently placed on an Envision Plate Reader (Perkin Elmer, Waltham, Mass.) for five minutes before the luminescence signal was read. CC50 values were defined as the compound concentration that caused a 50% decrease in luminescence signal, and were calculated by non-linear regression using Pipeline Pilot software by applying a four parameter fit equation (Accelrys, San Diego, Calif.) and are reported in the following Table 1.

[2] = five days, Cell Titer Glo luminescence, read-out: MT-4 CC50

| Compound | EC50 [1] | CC50 at 5 days (MT-4 cytotoxicity assay; MT-4 CC50) | CC50 at 5 days (MT-4 cytotoxicity assay; [2]) |
| --- | --- | --- | --- |
| COCCCOc1cc2c(cc1COC)-c1cc(=O)c(C(=O)O)cn1N1[C@@H]2CCC12CCC2 [Compound 110, (R)-11′-(methoxymethyl)-12′-(3-methoxypropoxy)-8′-oxo-1′,2′,8′,13b′-tetrahydrospiro[cyclobutane-1,3′-pyrido[2,1-a]pyrrolo[1,2-c]phthalazine]-7′-carboxylic acid] | 3.9 nM | > 10000 nM | – |
| COCc1cc2c(cc1OCCCO)[C@H]1CCC(C)(C)N1n1cc(C(=O)O)c(=O)cc1-2 [Compound 111, (R)-12-(3-hydroxypropoxy)-11-(methoxymethyl)-3,3-dimethyl-8-oxo-2,3,8,13b-tetrahydro-1H-pyrido[2,1-a]pyrrolo[1,2-c]phthalazine-7-carboxylic acid] | 32.2 nM | – | > 10000 nM |
| CC1(C)CC[C@@H]2c3cc(C#CC(C)(C)S(C)(=O)=O)c(OC(F)F)cc3-c3cc(=O)c(C(=O)O)cn3N21 [Compound 112, (R)-11-(difluoromethoxy)-3,3-dimethyl-12-(3-methyl-3-(methylsulfonyl)but-1-yn-1-yl)-8-oxo-2,3,8,13b-tetrahydro-1H-pyrido[2,1-a]pyrrolo[1,2-c]phthalazine-7-carboxylic acid] | 2.7 nM | – | > 10000 nM |
| COCCCOc1cc2c(cc1CO)-c1cc(=O)c(C(=O)O)cn1N1[C@@H]2CCC1(C)C [Compound 113, (R)-11-(hydroxymethyl)-12-(3-methoxypropoxy)-3,3-dimethyl-8-oxo-2,3,8,13b-tetrahydro-1H-pyrido[2,1-a]pyrrolo[1,2-c]phthalazine-7-carboxylic acid] | 22.7 nM | – | > 10000 nM |
| COCCCOc1cc2c(cc1COC)-c1cc(=O)c(C(=O)O)cn1N1[C@@H]2COCC12CCC2 [Compound 114, (S)-12′-(methoxymethyl)-13′-(3-methoxypropoxy)-9′-oxo-9′,14b′-dihydro-1′H,3′H-spiro[cyclobutane-1,4′-[1,4]oxazino[3,4-a]pyrido[1,2-c]phthalazine]-8′-carboxylic acid] | 67.6 nM | > 10000 nM | – |
| CC(C)(C)OC(=O)[C@H]1CCN(c2cc3c(cc2OC(F)(F)F)-c2cc(=O)c(C(=O)O)cn2N2[C@@H]3CCC2(C)C)C1 [Compound 115, (R)-12-((S)-3-(tert-butoxycarbonyl)pyrrolidin-1-yl)-3,3-dimethyl-8-oxo-11-(trifluoromethoxy)-2,3,8,13b-tetrahydro-1H-pyrido[2,1-a]pyrrolo[1,2-c]phthalazine-7-carboxylic acid] | 2.9 nM | – | 8300 nM |
| COCc1cc2c(cc1N1CC[C@@H](COC)C1)[C@H]1CCC(C)(C)N1n1cc(C(=O)O)c(=O)cc1-2 [Compound 117, (R)-11-(methoxymethyl)-12-((R)-3-(methoxymethyl)pyrrolidin-1-yl)-3,3-dimethyl-8-oxo-2,3,8,13b-tetrahydro-1H-pyrido[2,1-a]pyrrolo[1,2-c]phthalazine-7-carboxylic acid] | 5.3 nM | – | 9700 nM |
| [2H]C([2H])(OC)C([2H])([2H])C([2H])([2H])Oc1cc2c(cc1COC)-c1cc(=O)c(C(=O)O)cn1N1[C@@H]2CCC1(C)C [Compound 118, (R)-11-(methoxymethyl)-12-(3-methoxypropoxy-1,1,2,2,3,3-d6)-3,3-dimethyl-8-oxo-2,3,8,13b-tetrahydro-1H-pyrido[2,1-a]pyrrolo[1,2-c]phthalazine-7-carboxylic acid] | 4.1 nM | – | > 10000 nM |
| COCCCOc1cc2c(cc1Cl)-c1cc(=O)c(C(=O)O)cn1N1CCCC21 (stereo not shown) [Example 1, 11-chloro-12-(3-methoxypropoxy)-8-oxo-2,3,8,13b-tetrahydro-1H-pyrido[2,1-a]pyrrolo[1,2-c]phthalazine-7-carboxylic acid] | 90 nM | – | 8000 nM |
| COCCCOc1cc2c(cc1Cl)-c1cc(=O)c(C(=O)O)cn1N1C2CCC1(C)C (stereo not shown) [Example 4, 11-chloro-12-(3-methoxypropoxy)-3,3-dimethyl-8-oxo-2,3,8,13b-tetrahydro-1H-pyrido[2,1-a]pyrrolo[1,2-c]phthalazine-7-carboxylic acid] | 3.9 nM | – | > 10000 nM |
| COCCCOc1cc2c(cc1Cl)-c1cc(=O)c(C(=O)O)cn1N1C2CCCC1(C)C (stereo not shown) [Example 11, 13-chloro-12-(3-methoxypropoxy)-7,7-dimethyl-2-oxo-2,7,8,9,10,10a-hexahydrodipyrido[2,1-a:1′,2′-c]phthalazine-3-carboxylic acid] | 4.3 nM | – | > 10000 nM |
| COCCCOc1cc2c(cc1OC)-c1cc(=O)c(C(=O)O)cn1N1[C@@H]2CCC1(C)C [Example 14, (R)-11-methoxy-12-(3-methoxypropoxy)-3,3-dimethyl-8-oxo-2,3,8,13b-tetrahydro-1H-pyrido[2,1-a]pyrrolo[1,2-c]phthalazine-7-carboxylic acid] | 2.1 nM | – | > 10000 nM |
| COCCCOc1cc2c(cc1OC)-c1cc(=O)c(C(=O)O)cn1N1[C@H]2CCC1(C)C [Example 15, (S)-11-methoxy-12-(3-methoxypropoxy)-3,3-dimethyl-8-oxo-2,3,8,13b-tetrahydro-1H-pyrido[2,1-a]pyrrolo[1,2-c]phthalazine-7-carboxylic acid] | 350 nM | – | > 10000 nM |
| COc1cc2c(cc1OCC1COC1)[C@H]1CCC(C)(C)N1n1cc(C(=O)O)c(=O)cc1-2 [Example 16, (R)-11-methoxy-3,3-dimethyl-12-(oxetan-3-ylmethoxy)-8-oxo-2,3,8,13b-tetrahydro-1H-pyrido[2,1-a]pyrrolo[1,2-c]phthalazine-7-carboxylic acid] | 7.8 nM | – | > 10000 nM |
| COCCCOc1cc2c(cc1Cl)-c1cc(=O)c(C(=O)O)cn1N1CC(C)(C)CCC21 (stereo not shown) [Example 17, 13-chloro-12-(3-methoxypropoxy)-8,8-dimethyl-2-oxo-2,7,8,9,10,10a-hexahydrodipyrido[2,1-a:1′,2′-c]phthalazine-3-carboxylic acid] | 110 nM | – | > 10000 nM |
| COCCCOc1cc2c(cc1OC(F)F)-c1cc(=O)c(C(=O)O)cn1N1C2CCC1(C)C (stereo not shown) [Example 18, 11-(difluoromethoxy)-12-(3-methoxypropoxy)-3,3-dimethyl-8-oxo-2,3,8,13b-tetrahydro-1H-pyrido[2,1-a]pyrrolo[1,2-c]phthalazine-7-carboxylic acid] | 4 nM | – | > 10000 nM |
| CCOc1cc2c(cc1OCCCOC)[C@H]1CCC(C)(C)N1n1cc(C(=O)O)c(=O)cc1-2 [Example 21, (R)-11-ethoxy-12-(3-methoxypropoxy)-3,3-dimethyl-8-oxo-2,3,8,13b-tetrahydro-1H-pyrido[2,1-a]pyrrolo[1,2-c]phthalazine-7-carboxylic acid] | 7.5 nM | – | > 10000 nM |
| COCCCOc1cc2c(cc1OC(C)C)-c1cc(=O)c(C(=O)O)cn1N1[C@@H]2CCC1(C)C [Example 22, (R)-11-isopropoxy-12-(3-methoxypropoxy)-3,3-dimethyl-8-oxo-2,3,8,13b-tetrahydro-1H-pyrido[2,1-a]pyrrolo[1,2-c]phthalazine-7-carboxylic acid] | 12 nM | – | > 10000 nM |
| COCCCOc1cc2c(cc1OCCCOC)[C@H]1CCC(C)(C)N1n1cc(C(=O)O)c(=O)cc1-2 [Example 23, (R)-11,12-bis(3-methoxypropoxy)-3,3-dimethyl-8-oxo-2,3,8,13b-tetrahydro-1H-pyrido[2,1-a]pyrrolo[1,2-c]phthalazine-7-carboxylic acid] | 53 nM | – | > 10000 nM |
| COCCCOc1cc2c(cc1OCCCOC)[C@@H]1CCC(C)(C)N1n1cc(C(=O)O)c(=O)cc1-2 [Example 24, (S)-11,12-bis(3-methoxypropoxy)-3,3-dimethyl-8-oxo-2,3,8,13b-tetrahydro-1H-pyrido[2,1-a]pyrrolo[1,2-c]phthalazine-7-carboxylic acid] | > 1000 nM | – | > 10000 nM |
